According to US20250099474A1 (priority 2022, published 2025):

Assays:
[1] = single ascending dose study in healthy Japanese adults; cited from earlier work
[2] = Phase I clinical study Part 1, single administration, pharmacokinetics and safety; assay type: in vivo, human; details: human, plasma, oral; in any dose group, single administration
Description: Test Example 3-1 Phase I Clinical Study
All studies were conducted based on Good Clinical Practice (GCP). The phase I clinical study was composed of Part 1 to Part 7, and in Part 1, the safety, tolerability, and pharmacokinetics were confirmed when the fumaric acid cocrystal Form I crystal of the compound represented by Formula (I) was administered once and when it was administered repeatedly.
The subjects who were determined to be eligible by the screening examination were randomly assigned to either the active drug group (see the following table for the dose of the fumaric acid cocrystal Form I crystal of the compound represented by Formula (I)) or the placebo group on the day before the day of administration of the investigational new drug (Day −1). On Day 1, the investigational new drug (active drug or placebo) was administered once in the fasted state.

For `Cn1cnc(Cn2c(=O)[nH]/c(=N\c3cc4cn(C)nc4cc3Cl)n(Cc3cc(F)c(F)cc3F)c2=O)n1` [compound represented by Formula (I), (6E)-6-[(6-chloro-2-methyl-2H-indazol-5-yl)imino]-3-[(1-methyl-1H-1,2,4-triazol-3-yl)methyl]-1-[(2,4,5-trifluorophenyl)methyl]-1,3,5-triazinane-2,4-dione], the Safety and tolerability [1] is given as “good safety and tolerability were confirmed” and the half-life [2] is given as > 40 h.
